Results published in patent US12240857B2 (priority 2017, dated 2025).
Where a name gives a salt, the structure may show the parent alone. Read-outs that look alike come from different tables or passages of the source.

Legend:
[1] = tested on: BDBV mucin-domain-deleted glycoprotein pseudotyped VSV; test: microbe, parasite or virus in culture; assay type: cell-based, Bundibugyo ebolavirus; details: Vesicular stomatitis virus, Vero, read-out: EC50 BDBV
[2] = in vitro; details: African green monkey, CC50
[3] = tested on: EBOV mucin-domain-deleted glycoprotein pseudotyped VSV; test: microbe, parasite or virus in culture; assay type: cell-based, Zaire ebolavirus; details: Zaire ebolavirus, Vero, read-out: EC50 EBOV

| Compound | EC50 [1] [nM] | CC50 [2] [µM] | EC50 [3] [nM] | EC50 ([3]; 24 h) [nM] | EC50 ([1]; 24 h) [nM] |
| --- | --- | --- | --- | --- | --- |
| CC1CNCCC1NC(=O)C12CC3CC(C)(C1)CC(c1ccccc1)(C3)C2 (stereo not drawn) [Example A112] | 260 | 7.2 | 37 | – | – |
| O=C(CC12CC3CC(C1)CC(c1ccccc1)(C3)C2)NCC(=O)N1CC2CC1CN2Cc1ccccc1 (stereo not drawn) [Example A14] | 230 | 6.2 | 200 | – | – |
| CCC(NCC(O)COc1ccccc1C(C)C)C12CC3CC(CC(C3)C1)C2 (stereo not drawn) [Example D3] | – | – | – | 1290 | – |
| CC12CC3CC(C(=O)Nc4ccnc(N)c4)(C1)CC(c1ccccc1)(C3)C2 (stereo not drawn) [Example A203, N-(2-aminopyridin-4-yl)-3-methyl-5-phenyladamantane-1-carboxamide] | 1020 | 3.9 | 910 | – | – |
| CC12CC3CC(C(=O)N4CC5(CC(N)C5)C4)(C1)CC(c1ccccc1)(C3)C2 (stereo not drawn) [Example A91] | 190 | 17.4 | 120 | – | – |
| NCc1ccc(OCC23CC4CC(C2)CC(c2ccccc2)(C4)C3)cc1 [Example C17, {4-[(3-phenyladamantan-1-yl)methoxy]phenyl}methanamine] | 1200 | – | > 1000 | – | – |
| CC12CC3CC(C(=O)N4C5CCC4CC(N)C5)(C1)CC(c1ccccc1)(C3)C2 (stereo not drawn) [Example A93] | 360 | 12.2 | 210 | – | – |
| CC12CC3CC(C(=O)NC4C[C@H]5CC[C@H](C4)N5)(C1)CC(c1ccccc1)(C3)C2 (stereo partly drawn) [Example A92] | 700 | 10.8 | 190 | – | – |
| O=C(N[C@@H]1CCN(Cc2ccccc2)C1)C12CC3CC(C1)CC(c1ccccc1)(C3)C2 [Example A19] | 440 | 3.9 | 290 | – | – |
| Cc1ccc(C23CC4CC(CC(CN5CCCCC5)(C4)C2)C3)cc1 [Example D1] | – | > 10 | – | 1300 | 610 |
| CN1CC[C@@H](NC(=O)CC23CC4CC(C2)CC(c2ccccc2)(C4)C3)C1 [Example A40] | 160 | – | 310 | – | – |
| CCOCCN1CCN(CC23CC4CC(CC(C4)C2)C3)CC1 [Example D5, 1-(adamantan-1-ylmethyl)-4-(2-ethoxyethyl)piperazine] | – | > 10 | – | 4600 | 1800 |
| O=C(N1CC2CC1CN2)C12CC3CC(C1)CC(c1ccccc1)(C3)C2 (stereo not drawn) [Example A65] | 90 | > 10 | 90 | – | – |
| N[C@H]1CC[C@H](NC(=O)CC2(c3ccccc3)C3CC4CC(C3)CC2C4)CC1 (stereo partly drawn) [Example A97] | 250 | 100 | 340 | – | – |
| O=C(CNC(=O)C12CC3CC(CC1C3)C2)N1CCN(Cc2ccccc2)CC1 [Example A18] | > 10000 | – | > 10000 | – | – |
| CCN1CCN(C(=O)C23CC4CC(C2)CC(c2ccc(C)cc2)(C4)C3)CC1 [Example B16, 1-ethyl-4-{[3-(4-methylphenyl)adamantan 1-yl]carbonyl} piperazine] | – | – | – | 1000 | 900 |
| CCOC12CC3CC(C1)CC(C(=O)NC1CCNCC1)(C3)C2 [Example A113] | > 1000 | – | > 1000 | – | – |
| O=C(CC12CC3CC(C1)CC(c1ccccc1)(C3)C2)NCC(=O)N1CCC2(CCN(Cc3ccccc3)C2)C1 (stereo not drawn) [Example A11] | 230 | – | 200 | – | – |
| COC(=O)c1ccc(COc2ccccc2CN2CCC3(CCN(C(=O)CNC(=O)CC45CC6CC(CC(C6)C4)C5)C3)C2)cc1 (stereo not drawn) [Example A59] | 1500 | – | 1100 | – | – |
| COC(=O)[C@H]1CN(C(=O)C23CC4CC(C)(C2)CC(c2ccccc2)(C4)C3)CCN1 (stereo partly drawn) [Example A106] | > 1000 | – | > 1000 | – | – |
| O=C(CC12CC3CC(CC(C3)C1)C2)N1CC2CC1CN2Cc1ccccc1 (stereo not drawn) [Example A53] | 9000 | – | 9200 | – | – |
| COc1ccc(OCC(O)CNCC23CC4CC(CC(C4)C2)C3)c(C(C)(C)C)c1 (stereo not drawn) [Example D2, (adamantan-1-ylmethyl) [3-(2-tert-butyl-4-methoxyphenoxy)-2-hydroxypropyl]amine] | – | – | – | 680 | 620 |
| COc1cccc(COCC(O)CNCC23CC4CC(CC(C4)C2)C3)c1 (stereo not drawn) [Example D6] | – | – | – | 3450 | 1500 |
| COc1ccccc1N1CCN(CC(O)COC23CC4CC(CC(C4)C2)C3)CC1 (stereo not drawn) [Example D19, 1-(adamantan-1-yloxy)-3-[4-(2-methoxyphenyl)piperazin-1-yl] propan-2-ol] | – | – | – | > 10000 | – |
| CN(C(=O)C12CC3CC(C1)CC(c1ccccc1)(C3)C2)C1CCN(Cc2ccccc2)CC1 [Example A23] | 170 | – | 210 | – | – |

| Compound | EC50 [1] [nM] | CC50 [2] [µM] | EC50 [3] [nM] | EC50 ([3]; 24 h) [nM] | EC50 ([1]; 24 h) [nM] |
| --- | --- | --- | --- | --- | --- |
| O=C(NC1CCN(Cc2ccccc2)CC1)C12CC3CC(CC1C3)C2 [Example A21] | > 10000 | – | > 10000 | – | – |
| CN1CCCN(CC(O)COc2ccc(C34CC5CC(CC(C5)C3)C4)cc2)CC1 (stereo not drawn) [Example D30, 1-[4-(adamantan-1-yl)phenoxy]-3-(4-methyl-1,4-diazepan-1-yl)propan-2-ol] | – | – | – | 190 | 470 |
| c1ccn2c(CN3CCCCC3)c(C34CC5CC(CC(C5)C3)C4)nc2c1 [Example D37] | – | – | – | 8900 | 3200 |
| CC(NC(=O)C1CCCN1)C12CC3CC(CC(C3)C1)C2 (stereo in doubt) [Example D43, (2R)-N-[1-(adamantan-1-yl)ethyl] pyrrolidine-2-carboxamide] | – | – | – | 4600 | 2500 |
| CN(C)CCNS(=O)(=O)c1ccc(C23CC4CC(CC(C4)C2)C3)cc1 [Example D33, 4-(adamantan-1-yl)-N-[2-(dimethylamino)ethyl] benzene-1-sulfonamide] | – | – | – | 440 | 420 |
| CN1CCN(c2nc(C34CC5CC(CC(C5)C3)C4)cs2)CC1 [Example D35, 1-[4-(adamantan-1-yl)-1,3-thiazol-2-yl]-4-methylpiperazine] | – | – | – | 440 | 620 |
| OC(COCCC12CC3CC(CC(C3)C1)C2)CN1CCN(c2ccccn2)CC1 (stereo not drawn) [Example D15, 1-[2-(adamantan-1-yl)ethoxy]-3-[4-(pyridin-2-yl)piperazin-1-yl] propan-2-ol] | – | – | – | 2900 | 2800 |
| C#CCN1CCC(C(=O)Nc2cc(C34CC5CC(CC(C5)C3)C4)n[nH]2)CC1 [Example D38, N-[5-(adamantan-1-yl)-1H-pyrazol-3-yl]-1-(prop-2-yn-1-yl) piperidine-4-carboxamide] | – | – | – | 3700 | 6800 |
| CC1CCCCN1CC(O)COC12CC3CC(CC(C3)C1)C2 (stereo not drawn) [Example D20, 1-(adamantan-1-yloxy)-3-(2-methylpiperidin-1-yl)propan-2-ol] | – | – | – | > 10000 | – |
| CCC1CCCCN1CC(O)COCCC12CC3CC(CC(C3)C1)C2 (stereo not drawn) [Example D9, 1-[2-(adamantan-1-yl)ethoxy]-3-(2-ethylpiperidin-1-yl)propan-2-ol hydrochloride] | – | – | – | 250 | 210 |
| OC(COc1ccc(C23CC4CC(CC(C4)C2)C3)cc1)CN1CCN(Cc2ccc3c(c2)OCO3)CC1 (stereo not drawn) [Example D31, 1-[4-(adamantan-1-yl)phenoxy]-3-[4-(2H-1,3-benzodioxo1-5-ylmethyl)piperazin-1-yl]propan-2-ol] | – | – | – | 230 | 1030 |
| CC12CC3CC(C(=O)NCC4(O)CNC4)(C1)CC(c1ccccc1)(C3)C2 (stereo not drawn) [Example A101] | > 1000 | – | > 1000 | – | – |
| COC(=O)c1ccc(COc2ccccc2CN2CC3CC2CN3C(=O)CC23CC4CC(CC(C4)C2)C3)cc1 (stereo not drawn) [Example A57] | > 10000 | – | 2900 | – | – |
| Cc1ccc(C23CC4CC(CC(C(=O)N5CCN(CCO)CC5)(C4)C2)C3)cc1 [Example B18, 2-(4-{[3-(4-methylphenyl)adamantan-1-yl]carbonyl}piperazin-1-yl)ethan-1-ol] | – | – | – | > 5000 | > 5000 |
| OC(COCCC12CC3CC(CC(C3)C1)C2)CN1CCc2ccccc2C1 (stereo not drawn) [Example D14, 1-[2-(adamantan-1-yl)ethoxy]-3-(1,2,3,4-tetrahydroisoquinolin-2-yl) propan-2-ol] | – | – | – | 2100 | 2670 |
| N[C@H]1CC[C@H](NC(=O)C23CC4CC(C(=O)N5CCCC5)(C2)CC(c2ccccc2)(C4)C3)CC1 (stereo partly drawn) [Example A114] | > 1000 | – | > 1000 | – | – |
| CN(CCN(C)C(=O)C12CC3CC(C1)CC(c1ccccc1)(C3)C2)Cc1ccccc1 [Example A22] | 220 | – | 260 | – | – |
| O=C(CN1CCN(CCC23CC4CC(CC(C4)C2)C3)CC1)N1CCCCC1 [Example D7, 2-{4-[2-(adamantan-1-yl)ethyl]piperazin-1-yl}-1-(piperidin-1-yl) ethan-1-one] | – | – | – | 6000 | 2600 |
| N[C@H]1CC[C@H](NC(=O)C23CC4CC(CO)(C2)CC(c2ccccc2)(C4)C3)CC1 (stereo partly drawn) [Example A116, trans-N-(4-aminocyclohexyl)-3-(hydroxymethyl)-5-phenyladamantane-1-carboxamide] | > 1000 | – | > 1000 | – | – |
| CC(C)C(NC(=O)C12CC3CC(CC(C3)C1)C2)C(=O)NC1CCN(Cc2ccccc2)CC1 (stereo not drawn) [Example B17, 2-(adamantan-1-ylformamido)-N-(1-benzylpiperidin-4-yl)-3-methylbutanamide] | – | – | – | > 5000 | < 5000 |
| OC(COC12CC3CC(CC(C3)C1)C2)CN1CCc2ccccc2C1 (stereo not drawn) [Example D18, 1-(adamantan-1-yloxy)-3-(1,2,3,4-tetrahydroisoquinolin-2-yl)propan-2-ol] | – | – | – | > 10000 | – |
| O=C(NC1CCNCC1)C12CC3CC(CC(C3)C1)C2 [Example B19, N-(piperidin-4-yl)adamantane-1-carboxamide] | – | – | – | 1100 | > 1000 |
| OCCN(CCO)CC(O)COCCC12CC3CC(CC(C3)C1)C2 (stereo not drawn) [Example D17, 2-({3-[2-(adamantan-1yl)ethoxy]-2-hydroxypropyl}(2-hydroxyethyl)amino)ethan-1-ol] | – | – | – | 8800 | 600 |
| O=C(NC1CCNCC1)C12CC3CC(C1)CC(c1ccc([N+](=O)[O-])cc1)(C3)C2 [Example A76] | 1060 | – | 1050 | – | – |
